Reference: patent US20060205756A1, “Antitussives” (Kyowa Hakko Kogyo Co., Ltd., priority 2003, published 2006)

Tested on: citric acid-induced cough
Experiment: Citric acid-induced cough model of guinea pig
Type: in vivo
Conditions: for Numbers of the cough reflex by inhalation of citric acid: 1 hour before citric acid inhalation (0.5 mol/L, 2 min), coughs counted during 15 minutes, mean ± standard error; for Suppression of cough reflex as compared with the solvent group: Student's t-test versus solvent-administered group
Text: Antitussive activity is able to be evaluated by suppression of the cough induced by inhalation of a substance such as citric acid, capsaicin, etc. It is also possible to evaluate antitussive activity by suppression of the cough induced by a direct infusion of citric acid or capsaicin into airway [Nippon Yakurigaku Zasshi, volume 120, page 237 (2002)]. It is further possible to evaluate antitussive activity by suppression of the cough by a physical stimulation, for example, contact stimulation of throat or airway [Eur. J. Phazmacol., volume 329, page 93 (1997)].
Evaluation Using the Citric Acid-Induced Cough Model of Guinea Pig
Guinea pigs (Hartley strain; male; six weeks age; Nippon SLC) were used for the test. Induction of cough reflex by citric acid was conducted in a similar manner to the method by Hosoe, et al. [Yakuri to Rinsho, volume 5, page 2147 (1995)]. Thus, the guinea pig was fixed in a double chamber plethysmograph box (manufactured by Buxco Electronics) for guinea pigs and ventilation was conducted at about 1.6 L/minute. A physiological saline containing 0.5 mol/L of citric acid (manufactured by Wako Pure Chemical) was sprayed for 2 minutes from the upper part of the box of the head side using an ultrasonic nebulizer (NE-U12 manufactured by Omron) and discharged from the side drain. The cough reflex was measured by the generated cough sound and the respiration waveform. Numbers of coughs generated during 15 minutes from initiation of inhalation of citric acid were counted. Compound 1, Compound 2 and codeine phosphate (manufactured by Shionogi) each was suspended in 0.5 w/v % methyl cellulose 400 cP (manufactured by Wako Pure Chemical) and orally administered 1 hour before the initiation of the inhalation of citric acid. Incidentally, with regard to the Compound 1 and Compound 2, each 2, mg thereof was suspended in 1 mL of 0.5 w/v % methyl cellulose 400 cP while, with regard to codeine phosphate, 4 mg thereof was suspended in 1 mL of 0.5 w/v % methyl cellulose 400 cP and the suspension was administered at 5 mL per kg body weight. Numbers of the cough reflex by inhalation of citric acid in the group administered with the solvent were 7.9±1.8, while those in the group administered with 10 mg/kg of Compound 1 were 2.0±1.0. In this test, seven guinea pigs were used for the group administered with the solvent and for the group administered with Compound 1, respectively. Numbers of the cough reflex were expressed as the mean value ±standard error. […] Numbers of the cough reflex by inhalation of citric acid in the group administered with 10 mg/kg of Compound 2 were 4.3±1.0, while those in the group administered with the solvent were 10.3±1.8. In this test, twelve guinea pigs were used for the group administered with the solvent and for the group administered with Compound 2, respectively. Numbers of the cough reflex were expressed as the mean value±standard error. […] Numbers of the cough reflex in the group administered with 20 mg/kg of codeine phosphate which is a central antitussive were 1.8±0.5, while those in the group administered with the solvent were 6.8±1.4. In this test, six guinea pigs were used for the group administered with the solvent and for the group administered with codeine phosphate. Numbers of the cough reflex were expressed as the mean value±standard error.

SMILES: C[C@](O)(C(=O)Nc1cccc2c1C(=O)c1sccc1CS2(=O)=O)C(F)(F)F [Compound 1]
- Numbers of the cough reflex by inhalation of citric acid (10 mg/kg oral): 2.0±1.0
- Suppression of cough reflex as compared with the solvent group (10 mg/kg oral): significant suppressive response

SMILES: CC(C)(O)C(=O)Nc1cccc2c1C(=O)c1sccc1CS2(=O)=O [Compound 2]
- Numbers of the cough reflex by inhalation of citric acid (10 mg/kg oral): 4.3±1.0
- Suppression of cough reflex as compared with the solvent group (10 mg/kg oral): significant suppressive response

SMILES: COc1ccc2c3c1O[C@H]1[C@@H](O)C=C[C@H]4[C@@H](C2)N(C)CC[C@@]341 [codeine phosphate, reference compound]
- Numbers of the cough reflex by inhalation of citric acid (20 mg/kg oral): 1.8±0.5
